According to patent US9988355B2, “Form A of mesylate for nicotinamide derivatives and preparation method and application thereof” (SHANGHAI SUNTRONG BIOTECHNOLOGY CO., LTD., priority 2014, dated 2018):
Structures can show the parent of a compound that is named as a salt.

What was measured:
Type in all cases: physicochemical
[1] = Solubility comparison of different crystal forms in water and ethanol
Source text: Embodiment 15. Solubility Comparison of Different Crystal Forms
The form A of mesylate for niacinamide derivatives prepared according to the method of the embodiment 4 and the needle solid of nicotinamide derivatives mesylate prepared according to the method of the embodiment 10 were respectively dissolved in water and ethanol, and solubility results were shown in Table 1.

[2] = Hygroscopicity determination by TGA after storage at room temperature, humidity 40%
Procedure: Embodiment 11. Hygroscopicity Determination of the Contrast Needles Shape Solid of Nicotinamide Derivatives Mesylate
The obtained compound referred in a Chinese patent CN101676267 was 180.2 g of white needle-like crystals (0.365 mol) with the molecular weight being 493.5. It can thus be seen that the contrast needles shape solid of nicotinamide derivatives mesylate was anhydrate. The white needles of nicotinamide derivatives mesylate were prepared according to the method of […], and a DSC-TGA pattern of the needles as shown in FIG. 2 was obtained. Wherein, the testing conditions of differential scanning calorimetry (DSC) were 10° C./min with range of 30-300° C., and TGA testing conditions were 10° C./min from room temperature to 350° C. A proper amount of the needle samples of nicotinamide derivatives mesylate were placed at the room temperature under the humidity condition of 40%, and TGA detection was conducted on the solid respectively at the time intervals of 24 hours, 48 hours and 72 hours.

[3] = Stability comparison of different crystal forms by solid-state representation means (XRPD), 6 months
Procedure: Embodiment 17. Stability Comparison of Different Crystal Forms Determined by Adopting Solid-State Representation Means
The form A of mesylate for niacinamide derivatives prepared according to the method of the embodiment 4 and the needles solid of nicotinamide derivatives mesylate prepared according to the method of the embodiment 10 were respectively put in the environment with light, high humidity (relative humidity (RH) is 90%), room temperature and high temperature (60° C.) for 6 months, XRPD determination was performed by adopting a solid-state representation means, and examination results were shown in Table 3.

[4] = Stability comparison of different crystal forms determined by HPLC, 6 months
Procedure: Embodiment 16. Stability Comparison of Different Crystal Forms Determined by HPLC
The form A of mesylate for niacinamide derivatives prepared according to the method of the embodiment 4 and the mesylate needles of nicotinamide derivatives prepared according to the method of the embodiment 10 were respectively put in the environment with light, high humidity (relative humidity (RH) is 90%), room temperature and high temperature (60° C.) for 6 months, the contents of related substances of the sample were determined by adopting HPLC, and examination results were shown in Table 2. HPLC testing conditions: chromatographic column Venusil MP-C18 (4.6 mm×250 mm, 5 μm, 100 Å); Mobile phase A: 0.1% acetum, B: acetonitrile, gradient conditions (0 min, 95% A; 20 min, 5% A; 25 min, 5% A; 30 min, 95% A); Detection wavelength 254 nm; Flowing speed 1 ml/min; Column temperature 30° C.; Sample amount 20 μl.

[5] = High-temperature, high-humidity and light stability of the crystal form, XRPD after 5 days
Procedure: Embodiment 14. Determination of High-Temperature Stability, High-Humidity Stability and Light Stability of the Mesylate Crystal Form A of Nicotinamide Derivatives of the Present Invention
The mesylate crystal form A of nicotinamide derivatives prepared according to the method of the embodiment 4 was tested.
(1) High-Temperature Stability
(2) High-Humidity Stability

Water solubility [1] | Hygroscopicity (conclusion in words) ([2]; 24-72 hours) | TGA weight loss after storage under humidity ([2]; 24 hours) | TGA weight loss after storage under humidity ([2]; 48 hours) | TGA weight loss after storage under humidity ([2]; 72 hours) | Crystal form after storage (XRPD) ([3]; 60° C. for 6 months) | Crystal form after storage (XRPD) ([3]; Illuminating for 6 months) | Contents of related substances of the sample by HPLC ([4]; 60° C. for 6 months) | Contents of related substances of the sample by HPLC ([4]; Illuminating for 6 months) | Contents of related substances of the sample by HPLC ([4]; RH90% for 6 months) | Contents of related substances of the sample by HPLC ([4]; Room temperature for 6 months) | High-temperature stability (XRPD compared with FIG. 1) ([5]; airtight drying oven of 60° C.) | Light stability (XRPD compared with FIG. 1) ([5]; transparent container, light 4500 lux) | Crystal form after storage (XRPD) ([3]; RH90% for 6 months) | Crystal form after storage (XRPD) ([3]; Room temperature for 6 months) | Structure (SMILES) | High-humidity stability (XRPD compared with FIG. 1) ([5]; airtight container, humidity 92.5%)
Insoluble | a certain hygroscopicity | 3.311% | 3.191% | 3.332% | Unchanged | Unchanged | 98.2% | 99.4% | 98.8% | 99.2% | – | – | – | – | N#CC1(c2ccc(NC(=O)c3cccnc3NCc3ccncc3)cc2)CCCC1 [Contrast needles, N-[4-(1-cyanocyclopentyl)phenyl]-2-(4-pyridylmethyl) amidogen-3-pyridineethanamine] | –
Insoluble | – | – | – | – | Unchanged | Unchanged | 98.1% | 99.6% | 98.5% | 99.4% | good high-temperature stability | good light stability | Unchanged | Unchanged | N#CC1(c2ccc(NC(=O)c3cccnc3NCc3ccncc3)cc2)CCCC1 [The form A of mesylate for niacinamide derivatives of the pr] [N-[4-(1-cyanocyclopentyl)phenyl]-2-(4-pyridylmethyl) amidogen-3-pyridineethanamine] | good stability in a high-humidity environment
